Experimental data as given in US9617221B2, “Kinase modulators for the treatment of cancer” (Synovo GmbH, priority 2010, dated 2017).

What was measured:
Type in all cases: cell-based, mice
IL-10 [1] = experiment: IL-10 production by LPS-stimulated murine peritoneal macrophage (ELISA); conditions: for IL-10 by ELISA, % of solvent treated control: murine peritoneal macrophage; for IL-10 (LPS, Macrophages), amount of cytokine: 10 μM, 72 h
Procedure: (§1) Peritoneal macrophage or splenocytes (lymphocytes and macrophage) were harvested from donor mice using standard techniques. Cells were placed in culture and stimulated with either LPS (10 μg/mL) or concanavalin A 5 μg/mL (Sigma Chemical Co., St Louis, Mo.) in RPMI-1640 medium supplemented with antibiotics, […] 2-mercaptoethanol, 10 mm HEPES buffer and 10% fetal calf serum (FCS) (see Holan et al., 1985) to stimulate macrophage and T-cells respectively. Compounds were added from DMSO stock solutions to a final concentration of 50 μM or less with DMSO not exceeding 1% of total volume. After 72 h, cell supernatant was recovered and the cytokine levels were estimated by ELISA. The effect of compounds on cytokine production was recorded as follows: […]

B cells = experiment: Proliferation of LPS-stimulated B cells; conditions: 10 μM
IFN-g = IFN-g production by ConA-stimulated T cells; conditions: 10 μM, 72 h
Procedure: as §1

IL-6 = IL-6 production by LPS-stimulated macrophages; conditions: 10 μM, 72 h
Procedure: as §1

NO = NO production by LPS-stimulated macrophages; conditions: 10 μM, 72 h
T cells = experiment: Proliferation of Con A-stimulated T cells; conditions: 10 μM
Procedure: as §1

IL-10 [2] = experiment: IL-10 production by ConA-stimulated T cells; conditions: 10 μM, 72 h
Procedure: as §1

IL-2 = IL-2 production by ConA-stimulated T cells; conditions: 10 μM, 72 h
Procedure: as §1

Row | SMILES | IL-10 by ELISA, % of solvent treated control (IL-10 [1]; 1.25 μM inhibitor in medium) | IL-10 by ELISA, % of solvent treated control (IL-10 [1]; 5 μM inhibitor in medium) | IL-10 by ELISA, % of solvent treated control (IL-10 [1]; 20 μM inhibitor in medium) | Proliferation (LPS, B cells) (B cells) | IFN-g (ConA, T cells), amount of cytokine (IFN-g) | IL-6 (LPS, Macrophages), amount of cytokine (IL-6) | IL-10 by ELISA, % of solvent treated control (IL-10 [1]; 2 μM inhibitor in medium) | IL-10 by ELISA, % of solvent treated control (IL-10 [1]; 10 μM inhibitor in medium) | IL-10 (LPS, Macrophages), amount of cytokine (IL-10 [1]) | IL-10 by ELISA, % of solvent treated control (IL-10 [1]; 50 μM inhibitor in medium) | NO (LPS, Macrophages), % of control treated with solvent alone (NO) | Proliferation (Con A, T cells) (T cells) | IL-10 (ConA, T cells), amount of cytokine (IL-10 [2]) | IL-2 (ConA, T cells), amount of cytokine (IL-2)
1 | CCOC(=O)CCCN(C)C1CC(C)OC(OC2C(C)C(OC3CC(C)(OC)C(O)C(C)O3)C(C)C(=O)OC(CC)C(C)(O)C(O)C(C)N(C)CC(C)CC2(C)O)C1O (centres unmarked) [Compound 27, 4-({2-[2-Ethyl-3,4,10-trihydroxy-13-(5-hydroxy-4-methoxy-4,6-dimethyl-tetrahydro-pyran-2-yloxy)-3,5,6,8,10,12,14-heptamethyl-15-oxo-1-oxa-6-aza-cyclopentadec-11-yloxy]-3-hydroxy-6-methyl-tetrahydro-pyran-4-yl}-methyl-amino)-butyric acid ethyl ester] | 132 % of solvent treated control | 106 % of solvent treated control | 17 % of solvent treated control | – | – | – | – | – | – | – | – | – | – | –
2 | CCC1OC(=O)C(C)C(OC2CC(C)(OC)C(O)C(C)O2)C(C)C(OC2OC(C)CC(N(C)CCCC(=O)OCC3CO3)C2O)C(C)(O)CC(C)CN(C)C(C)C(O)C1(C)O (centres unmarked) [Compound 29] | 110 % of solvent treated control | 114 % of solvent treated control | 106 % of solvent treated control | – | – | – | – | – | – | – | – | – | – | –
3 | CCC1OC(=O)C(C)C(OC2CC(C)(OC)C(O)C(C)O2)C(C)C(OC2OC(C)CC(N(C)CCCCCC(=O)OCCO)C2O)C(C)(O)CC(C)CN(C)C(C)C(O)C1(C)O (centres unmarked) [Compound 36] | – | – | – | 3 % of control treated with solvent alone | 99 % of control treated with solvent alone | 91 % of control treated with solvent alone | 88 % of solvent treated control | 116 % of solvent treated control | 116 % of control treated with solvent alone | 0 % of solvent treated control | 100 % of control treated with solvent alone | 199 % of control treated with solvent alone | 79 % of control treated with solvent alone | 96 % of control treated with solvent alone
4 | CC[C@H]1OC(=O)[C@H](C)[C@@H](O[C@H]2C[C@@](C)(OC)[C@@H](O)[C@H](C)O2)[C@H](C)[C@@H](O[C@@H]2O[C@H](C)C[C@H](N(C)CCCC(=O)OCC(O)CSc3nc(-c4ccc(F)cc4)c(-c4ccnc(NC(C)C(C)C)c4)[nH]3)[C@H]2O)[C@](C)(O)C[C@@H](C)CN(C)[C@H](C)[C@@H](O)[C@]1(C)O (some centres unmarked) [Compound 43a] | – | – | – | 2 % of control treated with solvent alone | 3 % of control treated with solvent alone | 15 % of control treated with solvent alone | 16 % of solvent treated control | 2 % of solvent treated control | 2 % of control treated with solvent alone | 5 % of solvent treated control | 1 % of control treated with solvent alone | 0 % of control treated with solvent alone | 0 % of control treated with solvent alone | 0 % of control treated with solvent alone
5 | CC[C@H]1OC(=O)[C@H](C)[C@@H](O[C@H]2C[C@@](C)(OC)[C@@H](O)[C@H](C)O2)[C@H](C)[C@@H](O[C@@H]2O[C@H](C)C[C@H](N(C)CCCC(=O)OCC(O)CSc3nc(-c4ccc(F)cc4)c(-c4ccnc(NC5CCOCC5)c4)[nH]3)[C@H]2O)[C@](C)(O)C[C@@H](C)CN(C)[C@H](C)[C@@H](O)[C@]1(C)O (some centres unmarked) [Compound 43b] | – | – | – | −3 % of control treated with solvent alone | 0 % of control treated with solvent alone | 94 % of control treated with solvent alone | 27 % of solvent treated control | −4 % of solvent treated control | −4 % of control treated with solvent alone | −4 % of solvent treated control | 31 % of control treated with solvent alone | −2 % of control treated with solvent alone | −2 % of control treated with solvent alone | 0 % of control treated with solvent alone
6 | CC[C@H]1OC(=O)[C@H](C)[C@@H](O)[C@H](C)[C@@H](O[C@@H]2O[C@H](C)C[C@H](N(C)CCCC(=O)OCC(O)CSc3nc(-c4ccc(F)cc4)c(-c4ccnc(NC5CCOCC5)c4)[nH]3)[C@H]2O)[C@](C)(O)C[C@@H](C)CN(C)[C@H](C)[C@@H](O)[C@]1(C)O (some centres unmarked) [Compound 43c] | – | – | – | 2 % of control treated with solvent alone | 72 % of control treated with solvent alone | 95 % of control treated with solvent alone | 18 % of solvent treated control | 7 % of solvent treated control | 7 % of control treated with solvent alone | −4 % of solvent treated control | 82 % of control treated with solvent alone | 113 % of control treated with solvent alone | 25 % of control treated with solvent alone | 90 % of control treated with solvent alone
7 | CCC(C)Nc1cc(-c2[nH]c(SCC(O)COC(=O)CCCN(C)[C@H]3C[C@@H](C)O[C@@H](O[C@@H]4[C@@H](C)[C@H](O[C@H]5C[C@@](C)(OC)[C@@H](O)[C@H](C)O5)[C@@H](C)C(=O)O[C@H](CC)[C@@](C)(O)[C@H](O)[C@@H](C)N(C)C[C@H](C)C[C@@]4(C)O)[C@@H]3O)nc2-c2ccc(F)cc2)ccn1 (some centres unmarked) [Compound 43d] | – | – | – | −3 % of control treated with solvent alone | 3 % of control treated with solvent alone | 95 % of control treated with solvent alone | 15 % of solvent treated control | −4 % of solvent treated control | −4 % of control treated with solvent alone | −4 % of solvent treated control | 52 % of control treated with solvent alone | −2 % of control treated with solvent alone | −2 % of control treated with solvent alone | 0 % of control treated with solvent alone
8 | CCC(C)Nc1cc(-c2[nH]c(SCC(O)COC(=O)CCCN(C)[C@H]3C[C@@H](C)O[C@@H](O[C@@H]4[C@@H](C)[C@H](O)[C@@H](C)C(=O)O[C@H](CC)[C@@](C)(O)[C@H](O)[C@@H](C)N(C)C[C@H](C)C[C@@]4(C)O)[C@@H]3O)nc2-c2ccc(F)cc2)ccn1 (some centres unmarked) [Compound 43e] | – | – | – | −3 % of control treated with solvent alone | 0 % of control treated with solvent alone | 29 % of control treated with solvent alone | −4 % of solvent treated control | −4 % of solvent treated control | −4 % of control treated with solvent alone | −4 % of solvent treated control | 1 % of control treated with solvent alone | −1 % of control treated with solvent alone | −2 % of control treated with solvent alone | 0 % of control treated with solvent alone
9 | CC[C@H]1OC(=O)[C@H](C)[C@@H](O[C@H]2C[C@@](C)(OC)[C@@H](O)[C@H](C)O2)[C@H](C)[C@@H](O[C@@H]2O[C@H](C)C[C@H](N(C)CCCC(=O)OCC(O)CSc3nc(-c4ccc(F)cc4)c(-c4ccnc(NC(C)C)c4)[nH]3)[C@H]2O)[C@](C)(O)C[C@@H](C)CN(C)[C@H](C)[C@@H](O)[C@]1(C)O (some centres unmarked) [Compound 43f] | – | – | – | −6 % of control treated with solvent alone | 61 % of control treated with solvent alone | 30 % of control treated with solvent alone | −1 % of solvent treated control | −10 % of solvent treated control | −10 % of control treated with solvent alone | 27 % of solvent treated control | 2 % of control treated with solvent alone | −8 % of control treated with solvent alone | 0 % of control treated with solvent alone | -1 % of control treated with solvent alone
